Read-outs that look alike come from different tables or passages of the source.
What was measured:
HeLa cells = assay: Cellular growth inhibition assay (CellTiter-Glo), HeLa cells; type: cell-based; settings: HeLa cells, three days of compound treatment, CellTiter-Glo 2.0, read-out: CTG HELA GI50
Experimental: (§1) HEK293 and HeLa cells were cultured in DMEM medium supplemented with 10% fetal bovine serum and 1% Penn/Strep. Cells were seeded in white 384-well plates at 500 cells/well in […] complete medium. Following seeding, plates were spun at 300×g for three minutes and cultured at 37° C. with 5% CO2 in a humidified tissue culture incubator.
(§2) After 24 hours, compounds were titrated in 100% DMSO and diluted in complete cell culture medium. […] of compound/media mixture was added to cells to bring total volume in well to […]. DMSO alone was used as a negative control. Plates were then spun at 300×g for three minutes and stored at 37° C. with 5% CO2 for three days.
(§3) On Day 0 and Day 3 of compound treatment, cell viability was quantified with CellTiter-Glo 2.0 reagent (Promega). After equilibrating microplates at room temperature for 30 minutes, 25 μL CellTiter-Glo 2.0 reagent was dispensed into each well to bring total volume to […]. Plates were mixed on shaker for 2 minutes at 500 rpm, followed by a 10-minute incubation at room temperature. Following a quick spin, luminescence readings were measured with an En Vision Plate Reader. Data was normalized to DMSO treated Day 0 and Day 3 readings. A four-parameter non-linear regression curve fit was applied to dose-response data in GraphPad Prism data analysis software to determine the half maximal growth inhibitory concentration (GI50) for each compound.

HEK293 cells = assay: Cellular growth inhibition assay (CellTiter-Glo), HEK293 cells; type: cell-based; settings: HEK293 cells, three days of compound treatment, CellTiter-Glo 2.0, read-out: CTG HEK293 GI50
Experimental: as §1, §2, §3

Row | Structure (SMILES) | GI50 (HeLa cells; Homo sapiens, 72 h) | GI50 (HeLa cells) | GI50 (HEK293 cells; Homo sapiens, 72 h) | GI50 (HEK293 cells)
1 | CCc1cnn2c(NCc3ccc(OCCOCCOCCOCCOCCOCCOCCOC/C=C/C(=O)N4CCC[C@@H](n5nc(-c6ccc(Oc7ccccc7)cc6)c6c(N)ncnc65)C4)nc3)cc(N3CCCC[C@H]3CCO)nc12 [Compound I-45] | 500 to 1500 nM |  | 500 to 1500 nM | 
2 | CCc1cnn2c(NCc3ccc(OCCOCCOCCOCCOCCOCCOCCN(C)C/C=C/C(=O)N4CCC[C@@H](n5nc(-c6ccc(Oc7ccccc7)cc6)c6c(N)ncnc65)C4)nc3)cc(N3CCCC[C@H]3CCO)nc12 [Compound I-46] | 1500 to 5000 nM |  | 1500 to 5000 nM | 
3 | C=CC(=O)N1CCN([C@@H](CC2CC2)c2ccc([C@H](C)Nc3ncc4c(n3)N(CCOCCOCCOCCOCCOc3ccc(CNc5cc(N6CCCC[C@H]6CCO)nc6c(CC)cnn56)cn3)C(=O)OC4)cc2)CC1 [Compound I-57] | < 500 nM |  | < 500 nM | 
4 | C=CC(=O)N1CCN([C@@H](CC2CC2)c2ccc([C@H](C)Nc3ncc4c(n3)N(CCOCCOCCOCCOCCn3cc(CNc5cc(N6CCCC[C@H]6CCO)nc6c(CC)cnn56)ccc3=O)C(=O)OC4)cc2)CC1 [Compound I-58] | < 500 nM |  | 500 to 1500 nM | 
5 | C=CC(=O)N1CCN([C@@H](CC2CC2)c2ccc([C@H](C)Nc3ncc4c(n3)N(CCOCCOCCOCCOCCOCCOCCON(C)C(=O)N3N=C(c5cc(F)ccc5F)SC3(CCCN)c3ccccc3)C(=O)OC4)cc2)CC1 (stereo partly shown) [Compound I-60] | 500 to 1500 nM |  | 1500 to 5000 nM | 
6 | C=CC(=O)N1CCN([C@@H](CC2CC2)c2ccc([C@H](C)Nc3ncc4c(n3)N(CCOCCOCCOCCOCCOCCOCCOCCOCCON(C)C(=O)N3N=C(c5cc(F)ccc5F)SC3(CCCN)c3ccccc3)C(=O)OC4)cc2)CC1 (stereo partly shown) [Compound I-61] | 500 to 1500 nM |  | 1500 to 5000 nM | 
7 | CCc1cnn2c(NCc3ccc(OCCCCCOc4nc(C#N)ccc4N[C@@H](C)c4cc5cc(Cl)ccc5[nH]c4=O)nc3)cc(N3CCCC[C@H]3CCO)nc12 [Compound I-90, 5-[[(1S)-1-(6-chloro-2-oxo-1H-quinolin-3-yl)ethyl]amino]-6-[5-[5-[[[3-ethyl-5-[(2S)-2-(2-hydroxyethyl)-1-piperidyl]pyrazolo[1,5-a]pyrimidin-7-yl]aminomethyl]-2-pyridyl]oxy]pentoxy]pyridine-2-carbonitrile] |  | < 500 nM |  | < 500 nM
8 | CCc1cnn2c(NCc3ccc(OCCOCCOCCOCCOCCNS(=O)(=O)c4cc(F)cc(N(C(=O)[C@@H]5CCC(=O)N5c5cc(C#N)ccn5)C(C(=O)NC5CC(F)(F)C5)c5ccccc5Cl)c4)nc3)cc(N3CCCC[C@H]3CCO)nc12 (stereo partly shown) [Compound I-94] |  | 500 to 1500 nM |  | 1500 to 5000 nM
9 | CCc1cnn2c(NCc3ccc(=O)n(CCOCCOCCOCCOCCNS(=O)(=O)c4cc(F)cc(N(C(=O)[C@@H]5CCC(=O)N5c5cc(C#N)ccn5)C(C(=O)NC5CC(F)(F)C5)c5ccccc5Cl)c4)c3)cc(N3CCCC[C@H]3CCO)nc12 (stereo partly shown) [Compound I-95] |  | 500 to 1500 nM |  | 1500 to 5000 nM

The next lines start with results.

Row | GI50 (HeLa cells; Homo sapiens, 72 h) | GI50 (HeLa cells) | Structure (SMILES) | GI50 (HEK293 cells; Homo sapiens, 72 h) | GI50 (HEK293 cells)
10 | 1500 to 5000 nM |  | CN(C/C=C/C(=O)N1CCC[C@@H](n2nc(-c3ccc(Oc4ccccc4)cc3)c3c(N)ncnc32)C1)CCOCCOCCOCCOCCOCCOCCNS(=O)(=O)c1ccc(Nc2ncc(Br)c(Nc3cccc(F)c3C(N)=O)n2)cc1 [Compound I-65, 2-[[2-[4-[2-[2-[2-[2-[2-[2-[2-[[(E)-4-[(3R)-3-[4-amino-3-(4-phenoxyphenyl)pyrazolo[3,4-d]pyrimidin-1-yl]-1-piperidyl]-4-oxo-but-2-enyl]-methyl-amino]ethoxy]ethoxy]ethoxy]ethoxy]ethoxy]ethoxy]ethylsulfamoyl]anilino]-5-bromo-pyrimidin-4-yl]amino]-6-fluoro-benzamide] | > 5000 nM | 
11 |  | < 500 nM | CCc1cnn2c(NCc3ccc(OCCCCCn4c(C#N)ccc(N[C@@H](C)c5cc6cc(Cl)ccc6[nH]c5=O)c4=O)nc3)cc(N3CCCC[C@H]3CCO)nc12 [Compound I-89] |  | 1500 to 5000 nM
12 |  | < 500 nM | CCc1cnn2c(NCc3ccc(OCCOCCOCCCCCn4c(C#N)ccc(N[C@@H](C)c5cc6cc(Cl)ccc6[nH]c5=O)c4=O)nc3)cc(N3CCCC[C@H]3CCO)nc12 [Compound I-91] |  | < 500 nM
13 |  | < 500 nM | CCc1cnn2c(NCc3ccc(OCCOCCOCCCc4cc(-c5cnc([C@H](C)Nc6nccc(N7C(=O)OC[C@@H]7[C@H](C)F)n6)cc5C)cc(C(F)(F)F)n4)nc3)cc(N3CCCC[C@H]3CCO)nc12 [Compound I-99] |  | < 500 nM
14 | < 500 nM |  | CCc1cnn2c(NCc3ccc(=O)n(CCOCCOCCCc4cc(-c5cnc([C@H](C)Nc6nccc(N7C(=O)OC[C@@H]7[C@H](C)F)n6)cc5C)cc(C(F)(F)F)n4)c3)cc(N3CCCC[C@H]3CCO)nc12 [Compound I-100, (4R)-3-[2-[[(1S)-1-[5-[2-[3-[2-[2-[5-[[3-ethyl-5-[(2S)-2-(2-hydroxyethyl)-1-piperidyl]pyrazolo[1,5-a]pyrimidin-7-yl]aminomethyl]-2-oxo-1-pyridyl]ethoxy]ethoxy]propyl]-6-(trifluoromethyl)-4-pyridyl]-4-methyl-2-pyridyl]ethyl]amino]pyrimidin-4-yl]-4-[(1S)-1-fluoroethyl]oxazolidin-2-one] | < 500 nM | 
15 |  | < 500 nM | CCc1cnn2c(NCc3ccc(OCCCc4cc(-c5cnc([C@H](C)Nc6nccc(N7C(=O)OC[C@@H]7[C@H](C)F)n6)cc5C)cc(C(F)(F)F)n4)nc3)cc(N3CCCC[C@H]3CCO)nc12 [Compound I-101] |  | < 500 nM
16 |  | < 500 nM | CCc1cnn2c(NCc3ccc(OCCOCCOCCOCCOCCCc4cc(-c5cnc([C@H](C)Nc6nccc(N7C(=O)OC[C@@H]7[C@H](C)F)n6)cc5C)cc(C(F)(F)F)n4)nc3)cc(N3CCCC[C@H]3CCO)nc12 [Compound I-102] |  | < 500 nM
17 |  | 500 to 1500 nM | CCc1cnn2c(NCc3ccc(=O)n(CCOCCOCCOCCOCCCc4cc(-c5cnc([C@H](C)Nc6nccc(N7C(=O)OC[C@@H]7[C@H](C)F)n6)cc5C)cc(C(F)(F)F)n4)c3)cc(N3CCCC[C@H]3CCO)nc12 [Compound I-103] |  | 500 to 1500 nM
18 | > 5000 nM |  | CCNC(=O)C[C@@H]1N=C(c2ccc(OCCOCCOCCOCCOCCNS(=O)(=O)c3cc(F)cc(N(C(=O)[C@@H]4CCC(=O)N4c4cc(C#N)ccn4)C(C(=O)NC4CC(F)(F)C4)c4ccccc4Cl)c3)cc2)c2c(sc(C)c2C)-n2c(C)nnc21 (stereo partly drawn) [Compound I-104, (2S)—N-[1-(2-chlorophenyl)-2-[(3,3-difluorocyclobutyl)amino]-2-oxo-ethyl]-1-(4-cyano-2-pyridyl)-N-[3-[2-[2-[2-[2-[2-[4-[(9S)-9-[2-(ethylamino)-2-oxo-ethyl]-4,5, 13-trimethyl-3-thia-1,8,11,12-tetrazatricyclo[8.3.0.0^2,6]trideca-2 (6),4,7,10,12-pentaen-7-yl]phenoxy]ethoxy]ethoxy]ethoxy]ethoxy]ethylsulfamoyl]-5-fluoro-phenyl]-5-oxo-pyrrolidine-2-carboxamide] | > 5000 nM | 
19 | > 5000 nM |  | CCNC(=O)C[C@@H]1N=C(c2ccc(OCCOCCOCC(=O)N3CC(=O)N(c4cc(C#N)ccn4)[C@H](C(=O)N(c4cc(F)cc(F)c4)[C@H](C(=O)NC4CC(F)(F)C4)c4ccccc4Cl)C3)cc2)c2c(sc(C)c2C)-n2c(C)nnc21 [Compound I-105, (2S)—N-[(1S)-1-(2-chlorophenyl)-2-[(3,3-difluorocyclobutyl)amino]-2-oxo-ethyl]-1-(4-cyano-2-pyridyl)-N-(3,5-difluorophenyl)-4-[2-[2-[2-[4-[(9S)-9-[2-(ethylamino)-2-oxo-ethyl]-4,5,13-trimethyl-3-thia-1,8,11,12-tetrazatricyclo[8.3.0.0^2,6]trideca-2 (6),4,7,10,12-pentaen-7-yl]phenoxy]ethoxy]ethoxy]acetyl]-6-oxo-piperazine-2-carboxamide] | > 5000 nM | 
20 | > 5000 nM |  | CCNC(=O)C[C@@H]1N=C(c2ccc(OCCOCCOCCOCCOCC(=O)N3CC(=O)N(c4cc(C#N)ccn4)[C@H](C(=O)N(c4cc(F)cc(F)c4)[C@H](C(=O)NC4CC(F)(F)C4)c4ccccc4Cl)C3)cc2)c2c(sc(C)c2C)-n2c(C)nnc21 [Compound I-106, (2S)—N-[(1S)-1-(2-chlorophenyl)-2-[(3,3-difluorocyclobutyl)amino]-2-oxo-ethyl]-1-(4-cyano-2-pyridyl)-N-(3,5-difluorophenyl)-4-[2-[2-[2-[2-[2-[4-[(9S)-9-[2-(ethylamino)-2-oxo-ethyl]-4,5,13-trimethyl-3-thia-1,8,11,12-tetrazatricyclo[8.3.0.0^2,6]trideca-2 (6),4,7, 10,12-pentaen-7-yl]phenoxy]ethoxy]ethoxy]ethoxy]ethoxy]acetyl]-6-oxo-piperazine-2-carboxamide] | > 5000 nM | 

Source: US20250136619A1, “HETEROBIFUNCTIONAL COMPOUNDS AND THEIR USE IN TREATING DISEASE” (HALDA THERAPEUTICS OPCO, INC., priority 2021, published 2025)
